Key:
[1] = target: T1, human adipocyte fatty acid-binding protein (FABP4) (Homo sapiens, UniProt P15090); assay: Surface Plasmon Resonance (SPR) binding assay, immobilized protein; details: for binding to immobilized FABP4 in SPR: 200, 100, 50, 25, 12 μM, triplicates
T1 sequence (P15090 2-132): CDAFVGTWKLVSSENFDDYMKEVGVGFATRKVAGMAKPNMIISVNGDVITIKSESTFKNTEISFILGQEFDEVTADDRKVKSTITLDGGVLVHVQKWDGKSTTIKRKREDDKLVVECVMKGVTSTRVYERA
Method: (§1) Briefly, mouse extracellular domain 1–2 (EC 1–2) C-terminally cysteine-tagged FABP4 and Aldose Reductase recombinant protein was immobilized on flow cell (FC) 2 in HEPES buffered saline (10 mM Hepes, pH 7.4, and 150 mM NaCl, 3 mM CaCl2) using a thiol-coupling kit according to the manufacturer’s protocol, resulting in immobilization levels of 4580 response units (RU). FC1 was only activated and inactivated and used as a reference. […] Each injection was repeated three times for 60 s. FC1 signals were deducted from FC2 for background noise elimination.

[2] = target: human aldose reductase (AKR1B1) (Homo sapiens, UniProt P15121); assay: as above; details: for binding to immobilized AKR1B1 in SPR: 200, 100, 50, 25, 12 μM, triplicates
Method: as §1

JAK2 = target: T2, JAK2 (Homo sapiens, UniProt O60674); assay: Kinomescan active site-directed competition kinase binding assay; details: read-out: Percent Control at 10 µM (Lower Numbers Indicate Stronger Hits)
T2 construct: purchased Discoverx (Kinomescan)
T2 sequence (O60674 840-1132 limits assumed): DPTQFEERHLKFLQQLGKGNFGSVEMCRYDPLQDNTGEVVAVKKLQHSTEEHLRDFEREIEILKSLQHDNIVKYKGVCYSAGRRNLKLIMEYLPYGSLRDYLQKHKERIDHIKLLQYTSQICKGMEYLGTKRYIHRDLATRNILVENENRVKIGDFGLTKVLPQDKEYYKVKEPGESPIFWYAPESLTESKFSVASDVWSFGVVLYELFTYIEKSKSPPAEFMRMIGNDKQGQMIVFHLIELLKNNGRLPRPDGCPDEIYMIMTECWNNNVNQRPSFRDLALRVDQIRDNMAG
Method: (§2) Kinase assays were performed using Kinomescan, by Discoverx, CA, USA and Caliper LabChip 3000 by Caliper Life sciences, USA as described by us previously. The determination of Mebendazole (MBZ) thermodynamic binding affinities (Kd) to kinase targets predicted by ES-Screen was performed by using active site-directed competition binding. Kinase-tagged T7 phage strains were grown in parallel in 24-well blocks in an E. coli host derived from the BL21 strain. E. coli bacteria were grown to log-phase and infected with T7 phage from a frozen stock (multiplicity of infection = 0.4) and incubated with shaking at 32 °C until lysis (90–150 min). The lysates were centrifuged (6000× g) and filtered (0.2 μm sieves) to remove cell debris. The remaining kinases were produced in HEK-293 cells and subsequently tagged with DNA for qPCR detection. […] The liganded beads were blocked with excess biotin and washed with blocking buffer (SeaBlock (Pierce), 1% BSA, 0.05% Tween 20, 1 mM DTT) to remove unbound ligands and to reduce non-specific phage binding. Binding reactions were assembled by combining kinases, control liganded affinity beads, and mebendazole in 1× binding buffer (20% SeaBlock, 0.17 × PBS, 0.05% Tween 20, 6 mM DTT). Mebendazole was prepared as 40× stocks in 100% DMSO and directly diluted into the assay. All reactions were performed in polypropylene 384-well plates in a final volume of 0.04 mL. The assay plates were incubated at room temperature with shaking for 1 h and the affinity beads were washed with wash buffer (1 × PBS, 0.05% Tween 20). […] The kinase concentration in the eluates was measured by qPCR. Ligands that bind the kinase active site and directly prevent kinase binding to the immobilized ligand will reduce the amount of kinase captured. […] The amount of kinase captured in test versus control samples were measured by using a quantitative, precise and ultra-sensitive qPCR method that detects the associated DNA label. Using the primary screen binding interactions are reported as ‘% Ctrl’ (Percent kinase remaining activity, Equation (8)), where lower numbers indicate stronger hits. (8) Percent Control (%Ctrl)=Mebendazole signal − Positive control signal/DMSO Negative control signal − Positive control signal × 100
(§3) In a similar manner, binding constants (Kd) for mebendazole-kinase interactions are calculated by measuring the amount of kinase captured as a function of the mebendazole concentration in a dose response manner. […] Most Kds were determined using a starting concentration = 30,000 nM. […] Binding constants (Kd) were calculated with a standard dose–response curve (ligand dose (x-axis)—qPCR signal (y-axis)) using the Hill Equation (9), with the Hill Slope set to −1. […]

MKNK2 = target: T3, MKNK2 (Homo sapiens, UniProt Q9HBH9); assay: as above; details: read-out: Percent Control at 10 µM (Lower Numbers Indicate Stronger Hits)
T3 construct: purchased Discoverx (Kinomescan)
T3 sequence (Q9HBH9 whole entry): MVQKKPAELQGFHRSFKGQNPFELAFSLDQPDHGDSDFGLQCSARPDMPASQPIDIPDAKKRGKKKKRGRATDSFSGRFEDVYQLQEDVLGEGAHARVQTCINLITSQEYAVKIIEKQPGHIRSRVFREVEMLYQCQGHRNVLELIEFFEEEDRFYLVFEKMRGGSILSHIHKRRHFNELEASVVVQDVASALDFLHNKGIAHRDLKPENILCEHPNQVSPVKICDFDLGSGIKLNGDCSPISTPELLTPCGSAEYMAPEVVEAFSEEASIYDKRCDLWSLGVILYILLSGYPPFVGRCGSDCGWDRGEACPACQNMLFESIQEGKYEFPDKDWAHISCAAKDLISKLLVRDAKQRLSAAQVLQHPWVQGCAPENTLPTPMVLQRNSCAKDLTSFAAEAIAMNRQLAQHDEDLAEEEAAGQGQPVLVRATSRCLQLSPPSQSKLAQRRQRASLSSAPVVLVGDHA
Method: as §2, §3

PIK3CG = target: T4, PIK3CG (Homo sapiens, UniProt P48736); assay: as above; details: read-out: Percent Control at 10 µM (Lower Numbers Indicate Stronger Hits)
T4 construct: purchased Discoverx (Kinomescan)
T4 sequence (P48736 whole entry): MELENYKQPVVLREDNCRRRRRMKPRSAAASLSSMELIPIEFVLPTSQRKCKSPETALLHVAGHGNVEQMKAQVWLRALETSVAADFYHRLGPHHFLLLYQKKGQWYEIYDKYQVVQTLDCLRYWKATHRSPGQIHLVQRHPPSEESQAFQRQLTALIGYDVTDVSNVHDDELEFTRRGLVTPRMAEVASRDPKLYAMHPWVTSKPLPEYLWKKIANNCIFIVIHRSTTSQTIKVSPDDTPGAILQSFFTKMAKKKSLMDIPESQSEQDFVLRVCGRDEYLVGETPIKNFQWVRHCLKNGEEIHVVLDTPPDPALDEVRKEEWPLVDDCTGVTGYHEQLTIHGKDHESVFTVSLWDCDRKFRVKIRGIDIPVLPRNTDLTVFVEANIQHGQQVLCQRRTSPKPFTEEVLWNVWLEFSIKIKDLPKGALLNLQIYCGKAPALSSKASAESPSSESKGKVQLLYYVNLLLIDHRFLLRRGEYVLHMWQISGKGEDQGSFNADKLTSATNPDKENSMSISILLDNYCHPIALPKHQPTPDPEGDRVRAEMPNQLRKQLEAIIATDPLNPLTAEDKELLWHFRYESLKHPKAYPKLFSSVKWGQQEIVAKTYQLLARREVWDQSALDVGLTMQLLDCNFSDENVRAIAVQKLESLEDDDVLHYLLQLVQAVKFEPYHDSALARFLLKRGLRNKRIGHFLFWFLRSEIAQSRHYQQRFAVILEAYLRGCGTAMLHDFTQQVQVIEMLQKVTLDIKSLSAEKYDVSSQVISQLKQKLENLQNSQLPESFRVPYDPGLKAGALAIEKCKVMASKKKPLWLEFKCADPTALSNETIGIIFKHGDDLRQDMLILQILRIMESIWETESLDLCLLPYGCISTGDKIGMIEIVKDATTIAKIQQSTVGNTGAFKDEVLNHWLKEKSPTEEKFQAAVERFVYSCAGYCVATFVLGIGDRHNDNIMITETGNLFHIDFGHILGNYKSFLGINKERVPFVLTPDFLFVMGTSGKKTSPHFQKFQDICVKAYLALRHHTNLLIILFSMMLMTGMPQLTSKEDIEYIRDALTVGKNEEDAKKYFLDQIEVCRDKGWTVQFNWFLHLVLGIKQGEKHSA
Method: as §2, §3

RAF1 = target: T5, RAF1 (Homo sapiens, UniProt P04049); assay: as above; details: read-out: Percent Control at 10 µM (Lower Numbers Indicate Stronger Hits)
T5 construct: purchased Discoverx (Kinomescan)
T5 sequence (P04049 whole entry): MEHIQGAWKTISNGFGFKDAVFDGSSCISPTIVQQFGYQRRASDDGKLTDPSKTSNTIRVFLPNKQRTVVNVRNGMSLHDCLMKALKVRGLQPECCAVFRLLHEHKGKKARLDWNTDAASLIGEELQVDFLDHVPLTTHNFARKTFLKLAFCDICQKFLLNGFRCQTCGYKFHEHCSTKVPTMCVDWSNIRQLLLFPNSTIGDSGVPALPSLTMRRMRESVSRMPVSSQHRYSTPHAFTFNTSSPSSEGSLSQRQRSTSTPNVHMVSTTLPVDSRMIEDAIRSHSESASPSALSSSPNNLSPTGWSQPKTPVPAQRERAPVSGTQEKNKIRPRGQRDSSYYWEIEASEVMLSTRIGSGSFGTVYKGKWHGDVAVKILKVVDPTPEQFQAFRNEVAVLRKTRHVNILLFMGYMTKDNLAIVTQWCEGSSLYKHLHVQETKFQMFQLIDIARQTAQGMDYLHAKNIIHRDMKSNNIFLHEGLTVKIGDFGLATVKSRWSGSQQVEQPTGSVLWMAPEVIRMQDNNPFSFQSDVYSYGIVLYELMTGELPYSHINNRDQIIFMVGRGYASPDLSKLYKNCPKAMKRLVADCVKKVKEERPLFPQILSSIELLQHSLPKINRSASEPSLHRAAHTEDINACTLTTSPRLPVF
Method: as §2, §3

binding to immobilized FABP4 in SPR [1]	binding to immobilized AKR1B1 in SPR [2]	percent of control kinase binding at 10 µM (JAK2)	remaining binding at 10 µM (MKNK2)	remaining binding at 10 µM (PIK3CG)	remaining binding at 10 µM (RAF1)	Kd ([1]; SPR, FABP4, read-out: KD50)	Kd ([2]; SPR, AKR1B1, read-out: KD50)	SMILES
in a dose-dependent manner	in a dose-dependent manner							CC1(C)Cc2c(-c3ccccc3)c(-c3ccc(Cl)cc3)c(CC(=O)O)n2C1 [licofelone]
in a dose-dependent manner	in a dose-dependent manner							COc1ccc2c(c1)c(CC(=O)O)c(C)n2C(=O)c1ccc(Cl)cc1 [indomethacin]
in a dose-dependent manner	in a dose-dependent manner							O=C(O)CCc1nc(-c2ccccc2)c(-c2ccccc2)o1 [oxaprozin]

SMILES	binding to immobilized FABP4 in SPR [1]	binding to immobilized AKR1B1 in SPR [2]	percent of control kinase binding at 10 µM (JAK2)	remaining binding at 10 µM (MKNK2)	remaining binding at 10 µM (PIK3CG)	remaining binding at 10 µM (RAF1)	Kd ([1]; SPR, FABP4, read-out: KD50)	Kd ([2]; SPR, AKR1B1, read-out: KD50)
COC(=O)Nc1nc2ccc(C(=O)c3ccccc3)cc2[nH]1 [mebendazole]	bind directly, in a dose-dependent manner	bind directly, in a dose-dependent manner	39%	46%	18%	23%	8.4 µM	5.5 µM
